# Molecular target: T1, IRAK4 (Homo sapiens, UniProt Q9NWZ3)
# T1 sequence (Q9NWZ3 1-460): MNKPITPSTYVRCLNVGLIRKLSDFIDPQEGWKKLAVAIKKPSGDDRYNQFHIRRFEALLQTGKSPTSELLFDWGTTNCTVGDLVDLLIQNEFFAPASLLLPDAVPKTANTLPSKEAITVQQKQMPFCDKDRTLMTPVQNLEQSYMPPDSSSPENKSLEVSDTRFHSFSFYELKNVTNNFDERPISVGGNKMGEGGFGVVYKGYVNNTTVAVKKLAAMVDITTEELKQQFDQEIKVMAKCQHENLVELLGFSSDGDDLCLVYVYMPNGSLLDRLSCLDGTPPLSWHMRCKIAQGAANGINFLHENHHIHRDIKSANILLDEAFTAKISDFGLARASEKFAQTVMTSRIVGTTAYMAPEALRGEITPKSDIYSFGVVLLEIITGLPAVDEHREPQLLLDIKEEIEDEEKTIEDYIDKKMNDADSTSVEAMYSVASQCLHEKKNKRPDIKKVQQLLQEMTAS
# Assay: OCI-LY-10 degradation assay (western blot, % IRAK4 degraded after 4 hours)
# Assay type: cell-based
# Design: endogenous in cells; host or cells: OCI-LY10
# Conditions: OCI-LY10 cells
# Summary of the method: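 OCI-LY10 cells (RPMI-1640, 20% FBS, 55 μM 2-ME) treated with compound at 0.003-10 μM final for 4 h at 37° C, then lysed in RIPA buffer. IRAK4 level read by fluorescent western blot (20-25 μg protein) and binned as % degraded: A >50%, B >20-50%, C <20%.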
smiles,measurement,setting,value
"O=C1CCC(N2C(=O)c3cccc(NCCOCCOCCNCc4ccc(-n5cc(NC(=O)c6coc(-c7ccnc(NCC8CC8)c7)n6)c(C(F)F)n5)cc4)c3C2=O)C(=O)N1 (stereo not shown) [I-210, 2-[2-(Cyclopropylmethylamino)-4-pyridyl]-N-[3-(difluoromethyl)-1-[4-[[2-[2-[2-[[2-(2,6-dioxo-3-piperidyl)-1,3-dioxoisoindolin-4-yl]amino]ethoxy]ethoxy]ethylamino]methyl]phenyl]pyrazol-4-yl]oxazole-4-carboxamide]",OCI-LY10 % IRAK4 Degradation (0.01 uM),"4 hours, 0.01 uM compound",C (<20% degradation)
same,OCI-LY10 % IRAK4 Degradation (0.1 uM),"4 hours, 0.1 uM compound",B (>20-50% degradation)
same,OCI-LY10 % IRAK4 Degradation (1 uM),"4 hours, 1 uM compound",A (>50% degradation)
same,OCI-LY10 % IRAK4 Degradation,"IRAK4 degraded after 4 hours, western blot",A (>50% degradation)
